Here are results for 24 molecules from patent US12390446B2 (RESEARCH TRIANGLE INSTITUTE, priority 2017, dated 2025).

Like-named read-outs stand apart in the source and are kept apart here.

For test [1], the target named is T1, NPFF2 receptor (human NPFFR2 in CHO-RD-HGA16 cells) (Homo sapiens, UniProt Q9Y5X5).
T1 construct: expressed in transfected cells
As to the kind of experiment: Calcium mobilization functional Ke assay, NPFF2. In kind it is cell-based. Particulars: for Kb: read-out: NPFF2 Ke.

Test [2] deals with T2, NPFF1 receptor (human NPFFR1 in CHO-RD-HGA16 cells) (Homo sapiens, UniProt Q9GZQ6).
T2 construct: expressed in transfected cells
T2 sequence (Q9GZQ6 whole entry): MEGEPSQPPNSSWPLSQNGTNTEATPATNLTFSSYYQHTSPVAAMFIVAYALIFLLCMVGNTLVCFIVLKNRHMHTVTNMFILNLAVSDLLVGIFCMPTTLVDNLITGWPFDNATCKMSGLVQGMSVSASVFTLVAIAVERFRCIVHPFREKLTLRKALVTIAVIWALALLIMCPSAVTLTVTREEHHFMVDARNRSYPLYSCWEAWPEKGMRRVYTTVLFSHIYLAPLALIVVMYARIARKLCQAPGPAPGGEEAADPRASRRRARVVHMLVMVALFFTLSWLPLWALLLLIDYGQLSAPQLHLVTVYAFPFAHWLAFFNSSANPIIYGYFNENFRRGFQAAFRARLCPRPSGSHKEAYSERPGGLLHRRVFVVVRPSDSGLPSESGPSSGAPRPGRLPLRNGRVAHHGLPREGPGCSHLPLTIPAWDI
Briefly: Calcium mobilization functional Ke assay, NPFF1. The class given is cell-based. To be noted: for Kb: read-out: NPFF1 Ke. (In general: Calcium flux is commonly read through the fluorescence of an indicator in the cells.)

Where [3] appears, read: Table 2, 4-(4-methylthio)benzylamino series, mean ± SEM.
Where [4] appears, read: Table 1, mean ± SEM, apparent dissociation constant vs NPFF.
The mark [5] stands for this setting: Table 1, footnote c: pre-incubation of antagonist and test compound 45 min or 1 hr.

T1 sequence (Q9Y5X5 whole entry): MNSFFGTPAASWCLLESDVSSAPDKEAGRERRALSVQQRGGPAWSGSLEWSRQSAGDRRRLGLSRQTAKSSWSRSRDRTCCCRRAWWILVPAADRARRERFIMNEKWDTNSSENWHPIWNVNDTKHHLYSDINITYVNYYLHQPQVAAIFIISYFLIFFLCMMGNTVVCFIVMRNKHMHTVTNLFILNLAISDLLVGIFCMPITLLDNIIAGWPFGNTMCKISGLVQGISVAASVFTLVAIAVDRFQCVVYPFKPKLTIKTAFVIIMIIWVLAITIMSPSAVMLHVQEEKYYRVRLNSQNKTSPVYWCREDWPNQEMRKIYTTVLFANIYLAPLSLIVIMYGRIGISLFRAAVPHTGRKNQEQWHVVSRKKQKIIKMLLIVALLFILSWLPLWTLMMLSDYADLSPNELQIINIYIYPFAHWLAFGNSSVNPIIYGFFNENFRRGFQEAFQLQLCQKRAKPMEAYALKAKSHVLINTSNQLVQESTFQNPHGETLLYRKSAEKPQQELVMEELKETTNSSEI

As to `O=C(NCCc1ccc([N+](=O)[O-])cc1)[C@@H]1C[C@H](NCc2ccc(O)cc2)CN1Cc1ccccc1Cl` [Compound 61, (2S,4S)-1-[(2-Chlorophenyl)methyl]-4-{[(4-hydroxyphenyl)methyl]amino}-N-[2-(4-nitrophenyl)ethyl]pyrrolidine-2-carboxamide], the Kb stood at 6370 nM in test [1] (Table 3, mean ± SEM) and 4790 nM in test [2] (Table 3, mean ± SEM).

For the molecule `COc1ccc(CN[C@H]2C[C@@H](C(=O)NCCc3ccccc3)N(Cc3ccc(N(C)C)cc3)C2)cc1` [Compound 85, (2S,4S)-1-{[4-(Dimethylamino)phenyl]methyl}-4-{[(4-methoxyphenyl)methyl]amino}-N-(2-phenylethyl)pyrrolidine-2-carboxamide], the Kb in test [1] (Table 4, mean ± SEM) was greater than 10000 nM; in test [2] (Table 4, mean ± SEM), 3510 nM.

As for `O=C(NCCc1ccc([N+](=O)[O-])cc1)[C@@H]1C[C@H](NCc2ccccc2)CN1Cc1ccccc1Cl` [Compound 56, (2S,4S)-4-(Benzylamino)-1-[(2-chlorophenyl)methyl]-N-[2-(4-nitrophenyl)ethyl]pyrrolidine-2-carboxamide], the Kb in test [1] (Table 3, mean ± SEM) was 1400 nM; in test [2] (Table 3, mean ± SEM), 1230 nM.

Consider `CCCCCCN1C[C@@H](NCc2ccc(OC)cc2)C[C@H]1C(=O)NCCc1ccccc1` [Compound 74, (2S,4S)-1-Hexyl-4-{[(4-methoxyphenyl)methyl]amino}-N-(2-phenylethyl)pyrrolidine-2-carboxamide], for which the Kb came to 7100 nM in test [1] (Table 4, mean ± SEM) and 1450 nM in test [2] (Table 4, mean ± SEM).

With `CSc1ccc(CN[C@H]2C[C@@H](C(=O)NCCc3ccccc3)N(Cc3ccccc3Cl)C2)cc1` [Compound 45, (2S,4S)-1-[(2-Chlorophenyl)methyl]-4-{[(4-(methylthio)phenyl)methyl]amino}-N-(2-phenylethyl)pyrrolidine-2-carboxamide], the Kb in test [1] (setting [3]) turned out to be 3700 nM; in test [2] (setting [3]), 530 ± 80 nM; in test [2] (calcium mobilization assay) it was 530 nM.

For the molecule `CCCCCCN[C@H]1C[C@@H](C(=O)NCCc2ccc([N+](=O)[O-])cc2)N(Cc2ccccc2Cl)C1` [Compound 55, (2S,4S)-1-[(2-Chlorophenyl)methyl]-4-(hexylamino)-N-[2-(4-nitrophenyl)ethyl]pyrrolidine-2-carboxamide], the Kb in test [1] (Table 3, mean ± SEM) worked out at 4470 nM; in test [2] (Table 3, mean ± SEM) it was 2320 nM.

Turning to `CCNC(=O)[C@@H]1C[C@H](NCc2ccc(OC)cc2)CN1Cc1ccccc1Cl` [Compound 11, (2S,4S)-1-[(2-Chlorophenyl)methyl]-N-ethyl-4-{[(4-methoxyphenyl)methyl]amino}pyrrolidine-2-carboxamide], the Kb in test [1] (setting [4]), in test [2] (setting [4]) and in test [2] (calcium mobilization assay) was greater than 10000 nM in each case. The “NPFF2 antagonist activity” value in test [1] (at 10 μM) was “inactive”. In test [2] (at 10 μM), the “NPFF1 antagonist activity” value was “inactive”.

On to `COc1ccc(CN[C@H]2C[C@@H](C(=O)NCCc3ccccc3)N(Cc3ccc(C#N)cc3)C2)cc1` [Compound 86, (2S,4S)-1-[(4-Cyanophenyl)methyl]-4-{[(4-methoxyphenyl)methyl]amino}-N-(2-phenylethyl)pyrrolidine-2-carboxamide], for which the Kb was greater than 10000 nM in test [1] (Table 4, mean ± SEM) and 3830 nM in test [2] (Table 4, mean ± SEM).

Take `COc1ccc(CN[C@H]2C[C@@H](C(=O)NCCc3ccccc3)N(Cc3ccccc3C)C2)cc1` [Compound 82, (2S,4S)-4-{[(4-Methoxyphenyl)methyl]amino}-1-[(2-methylphenyl)methyl]-N-(2-phenylethyl)pyrrolidine-2-carboxamide]: the Kb came out at 3940 nM in test [1] (Table 4, mean ± SEM) and 490 ± 70 nM in test [2] (Table 4, mean ± SEM).

On to `COc1ccc(CN[C@H]2C[C@@H](C(=O)NCCC(C)C)N(Cc3ccccc3Cl)C2)cc1` [Compound 17, (2S,4S)-1-[(2-Chlorophenyl)methyl]-4-{[(4-methoxyphenyl)methyl]amino}-N-(3-methylbutyl)pyrrolidine-2-carboxamide], for which the Kb in test [1] (setting [5]) came out at 1540 nM; in test [2] (setting [4]) it was 1320 nM.

On to `CCC(C)NC(=O)[C@@H]1C[C@H](NCc2ccc(OC)cc2)CN1Cc1ccccc1Cl` (stereo partly drawn) [Compound 14, (2S,4S)—N-(Butan-2-yl)-1-[(2-chlorophenyl)methyl]-4-{[(4-methoxyphenyl)methyl]amino}pyrrolidine-2-carboxamide], for which the Kb in test [1] (setting [4]) was 3680 nM; in test [2] (setting [4]) it was 1500 nM.

`COc1ccc(CN[C@H]2C[C@@H](C(=O)NCCc3ccccc3)N(Cc3ccc(OC)c(OC)c3)C2)cc1` [Compound 81, (2S,4S)-1-[(3,4-Dimethoxyphenyl)methyl]-4-{[(4-methoxyphenyl)methyl]amino}-N-(2-phenylethyl)pyrrolidine-2-carboxamide]: the Kb was determined as 5360 nM in test [1] (Table 4, mean ± SEM) and 9020 nM in test [2] (Table 4, mean ± SEM).

As for `CCCCN[C@H]1C[C@@H](C(=O)NCCc2ccc([N+](=O)[O-])cc2)N(Cc2ccccc2Cl)C1` [Compound 53, (2S,4S)-4-(Butylamino)-1-[(2-chlorophenyl)methyl]-N-[2-(4-nitrophenyl)ethyl]pyrrolidine-2-carboxamide], the Kb in test [1] (Table 3, mean ± SEM) is greater than 10000 nM; in test [2] (Table 3, mean ± SEM) it was 6120 nM.

As for `COc1ccc(CN[C@H]2C[C@@H](C(=O)NCc3ccccc3)N(Cc3ccccc3Cl)C2)cc1` [Compound 23, (2S,4S)—N-Benzyl-1-[(2-chlorophenyl)methyl]-4-{[(4-methoxyphenyl)methyl]amino}pyrrolidine-2-carboxamide], the Kb is 2010 nM in test [1] (setting [5]) and 780 ± 80 nM in test [2] (setting [5]). Further, the “type of antagonism in curve-shift assays” value in test [2] (standard incubation, competitive profile with longer incubations) is reported as “insurmountable antagonism”.

As for `CCCNC(=O)[C@@H]1C[C@H](NCc2ccc(OC)cc2)CN1Cc1ccccc1Cl` [Compound 12, (2S,4S)-1-[(2-Chlorophenyl)methyl]-4-{[(4-methoxyphenyl)methyl]amino}-N-propylpyrrolidine-2-carboxamide], the Kb in test [1] (setting [4]) was 9080 nM; in test [2] (setting [4]), 2600 nM; in test [2] (calcium mobilization assay) it was 9080 nM.

For the molecule `O=C(NCCc1ccc([N+](=O)[O-])cc1)[C@@H]1C[C@H](NCCc2ccccc2)CN1Cc1ccccc1Cl` [Compound 58], the Kb in test [1] (Table 3, mean ± SEM) is 1130 nM; in test [2] (Table 3, mean ± SEM), 1150 nM.

For `COc1ccc(CN[C@H]2C[C@@H](C(=O)NCCc3ccccc3)N(Cc3ccc4ccccc4c3)C2)cc1` [Compound 87, (2S,4S)-4-{[(4-Methoxyphenyl)methyl]amino}-1-(naphthalen-2-ylmethyl)-N-(2-phenylethyl)pyrrolidine-2-carboxamide], the Kb in test [1] (Table 4, mean ± SEM) came out at 7220 nM; in test [2] (Table 4, mean ± SEM) it was 1720 nM.

Turning to `COc1ccc(CN[C@H]2C[C@@H](C(=O)NCCc3ccccc3)N(Cc3ccc4c(c3)OCO4)C2)cc1` [Compound 88, (2S,4S)-1-(2H-1,3-Benzodioxol-5-ylmethyl)-4-{[(4-methoxyphenyl)methyl]amino}-N-(2-phenylethyl)pyrrolidine-2-carboxamide], the Kb in test [1] (Table 4, mean ± SEM) is greater than 10000 nM; in test [2] (Table 4, mean ± SEM), 1860 nM.

`COc1ccc(CN[C@H]2C[C@@H](C(=O)NCCc3ccccc3)N(Cc3cccc(Cl)c3)C2)cc1` [Compound 77, (2S,4S)-1-[(3-Chlorophenyl)methyl]-4-{[(4-methoxyphenyl)methyl]amino}-N-(2-phenylethyl)pyrrolidine-2-carboxamide]: the Kb in test [1] (Table 4, mean ± SEM) worked out at 4100 nM; in test [2] (Table 4, mean ± SEM), 580 ± 50 nM. Also, the “preference / selectivity for NPFF1 over NPFF2” value in test [2] (from calcium mobilization Ke values) is greater than 10 fold.

On to `COc1ccc(CN[C@H]2C[C@@H](C(=O)NCCc3ccccc3)N(Cc3ccccc3OC)C2)cc1` [Compound 79, (2S,4S)-1-[(2-Methoxyphenyl)methyl]-4-{[(4-methoxyphenyl)methyl]amino}-N-(2-phenylethyl)pyrrolidine-2-carboxamide], for which the Kb is 5110 nM in test [1] (Table 4, mean ± SEM) and 1230 nM in test [2] (Table 4, mean ± SEM).

As for `COc1ccc(CN[C@H]2C[C@@H](C(=O)NCCc3ccccc3)N(Cc3cccc(OC)c3)C2)cc1` [Compound 80, (2S,4S)-1-[(3-Methoxyphenyl)methyl]-4-{[(4-methoxyphenyl)methyl]amino}-N-(2-phenylethyl)pyrrolidine-2-carboxamide], the Kb in test [1] (Table 4, mean ± SEM) is greater than 10000 nM; in test [2] (Table 4, mean ± SEM) it was 2460 nM.

As to `CCCCCCNC(=O)[C@@H]1C[C@H](NCc2ccc(OC)cc2)CN1Cc1ccccc1Cl` [Compound 18, (2S,4S)-1-[(2-Chlorophenyl)methyl]-4-{[(4-methoxyphenyl)methyl]amino}-N-hexylpyrrolidine-2-carboxamide], the Kb was determined as 1490 nM in test [1] (setting [5]) and 820 ± 80 nM in test [2] (setting [4]).

As to `COc1ccc(CN[C@H]2C[C@@H](C(=O)NCCC3CCCCC3)N(Cc3ccccc3Cl)C2)cc1` [Compound 21, (2S,4S)-1-[(2-Chlorophenyl)methyl]-N-(2-cyclohexylethyl)-4-{[(4-methoxyphenyl)methyl]amino}pyrrolidine-2-carboxamide], the Kb in test [1] (setting [5]) worked out at 1220 nM; in test [2] (setting [4]), 1120 nM.

For `CCCCCNC(=O)[C@@H]1C[C@H](NCc2ccc(SC)cc2)CN1Cc1ccccc1Cl` [Compound 44, (2S,4S)-1-[(2-Chlorophenyl)methyl]-4-{[(4-(methylthio)phenyl)methyl]amino}-N-pentylpyrrolidine-2-carboxamide], the Kb in test [1] (Table 2, footnote c: pre-incubation 1 hr) amounted to 970 ± 30 nM; in test [2] (setting [3]), 360 ± 50 nM; in test [2] (calcium mobilization assay), 360 nM.
